Results from US8536148B2, “Disabling autophagy as a treatment for lysosomal storage diseases” (The United States of America, as Represented by the …, priority 2009, dated 2013).
“Also recorded” adds a separate entry of the source.

Legend:
TA muscle = format: in vivo
autophagy = assay: Inhibition of autophagy by 3-MA injected into TA muscle (histology, LC3, glycogen content); format: in vivo; conditions: 40 l of 5 mg/ml per TA, two injections six days apart, harvested two to three days after second injection
Procedure: 3-MA was administered using the highest possible safety dose (40 l of 5 mg/ml per TA) determined from the above-described study. Two injections (six days apart) were given into TA muscle. Two to three days after the second injection, the treated muscles were harvested to examine the histology, the level of autophagy marker LC3, and the glycogen content.

[1] = intraperitoneal; Sigma MSDS; cited from earlier work
[2] = system: MLCcre: Atg7F/F: GAA−/− mice; assay: Effect of ERT on glycogen levels in MLCcre:Atg7F/F:GAA−/− mice (biochemical glycogen measurement, PAS staining); format: in vivo, mouse; conditions: for Glycogen level after ERT (in words): MLCcre:Atg7F/F:GAA−/− mice, fast muscle; for Glycogen level, Treated: rhGAA 100 mg/kg i.v., three injections every other week; for Excess Glycogen: treated value minus wild type level
Procedure: (§1) Glycogen concentration in skeletal muscle was evaluated by measuring the amount of glucose released after treatment of tissue extracts with Aspergillus niger amyloglucosidase as described (Kikuchi et al., J. Clin. Invest., 101:827-833, 1998), except that the enzymatic digestion was carried out at 55° C. rather than 37° C. (Kikuchi et al., J. Clin. Invest., 101:827-833, 1998). Tissues were fixed in 3% glutaraldehyde (EM grade, Electron Microscopy sciences, Hatfield, Pa.) in 0.2M Sodium Cacodylate buffer for 4 h at 4° C., washed in 0.1M Sodium Cacodylate buffer, and stored at 4° C. in the same buffer. Samples were then imbedded in paraffin, sectioned, and stained with periodic acid-Schiff (PAS) by standard methods.
(§2) Two and a half month-old GAA−/−, MLCcre: Atg7F/F: GAA−/−, and HSAcre: Atg5F/F: GAA−/− mice received three intravenous injections of recombinant human α-glucosidase (rhGAA; Myozyme®, Genzyme Corporation, Framingham, Mass.) at a dose of 100 mg/kg every other week. To diminish a hypersensitivity reaction, diphenhydramine hydrochloride was injected intraperitoneally at a dose of 5 mg/kg 15 minutes before the second and third injections of rhGAA. The mice were sacrificed 7 days after the last injection. Twelve GAA−/−, 11 HSAcre: Atg5F/F: GAA−/−, and 9 MLCcre: Atg7F/F: GAA−/− were treated with rhGAA.

GAA−/− mice [3] = assay: Effect of ERT on ubiquitinated (Ub) proteins in fast muscle of GAA−/− mice (FK2 immunoblot); format: in vivo, mouse; conditions: gastrocnemius total lysates, ERT-treated vs untreated
Procedure: Whole muscle tissues were homogenized in RIPA buffer (PBS, 1% NP40, 0.5% Sodium deoxycholate, 0.1% SDS) containing a protease inhibitor cocktail tablet (Roche Diagnostics, Mannheim, Germany). Samples were centrifuged for 30 min at 13,000 rpm at 4° C. Alternatively, detergent-soluble and -insoluble fractions from muscle tissues were obtained as previously described (Hara et al. 2006). Briefly, muscle tissues were homogenized in ice-cold 0.25 M sucrose buffer (50 mM Tris-HCl pH 7.4, 1 mM EDTA; ˜350 μl/100 mg tissue) with protease inhibitors. Homogenates were centrifuged at a low speed for […] at 4° C., and the supernatants were lysed with an equal volume of cold sucrose buffer with 1% Triton X-100. Lysates were then centrifuged at 13,000 g for […] at 4° C. to collect fractions soluble in 0.5% Triton-X-100; the pellets (Triton-X-100-insoluble fractions) were resuspended in 1% SDS in PBS.
Protein concentrations of the supernatants of the total lysates or soluble fractions were measured using Bio-Rad Protein Assay (Bio-Rad Laboratories, Inc., Hercules, Calif.). Equal amounts of protein were run on SDS-PAGE gels (Invitrogen) followed by electro-transfer onto nitrocellulose membranes (Invitrogen). […]

[4] = system: HSAcre: Atg5F/F: GAA−/− mice; assay: Effect of ERT on glycogen levels in HSAcre:Atg5F/F:GAA−/− mice (biochemical glycogen measurement, PAS staining); format: in vivo, mouse; conditions: for Glycogen level, Treated: rhGAA 100 mg/kg i.v., three injections every other week; for Excess Glycogen: treated value minus wild type level
Procedure: as §1, §2

[5] = system: genetically engineered mice that lack expression of GAA; conditions: mice lacking GAA; cited from earlier work
GAA−/− mice [6] = assay: Effect of ERT on glycogen levels in GAA−/− mice (biochemical glycogen measurement, PAS staining); format: in vivo, mouse; conditions: for Treated vs. Untreated GAA−/− % Reduction / Glycogen level, Treated / Excess Glycogen: GAA−/−; for Glycogen level, Treated: rhGAA 100 mg/kg i.v., three injections every other week; for Excess Glycogen: treated value minus wild type level
Procedure: as §1, §2

Pompe disease = conditions: cited from earlier work
GAA−/− mice [7] = assay: LAMP-1/LC3 immunostaining of single fast (psoas) fibers after ERT, GAA−/− mice; format: in vivo, mouse; conditions: ERT-treated
Procedure: (§3) White gastrocnemius, soleus, and psoas muscles were removed immediately after sacrifice and pinned to Sylgaard-coated dishes for fixation with 2% paraformaldehyde in 0.1M phosphate buffer for 1 h, followed by fixation in methanol (−20° C.) for 6 min. Single fibers were obtained by manual teasing. Fibers were placed in a 24-well plate in Blocking Reagent (Vector Laboratories, Burlingame, Calif.) for 1 h. The fibers were then permeabilized, incubated with primary antibody overnight at 4° C., washed, incubated with secondary antibody for 2 h, washed again, and mounted in Vectashield (Vector Laboratories, Burlingame, Calif.) on a glass slide. The fibers were analyzed using a Zeiss 510 META confocal microscope. The white part of gastrocnemius and psoas muscles in mice are a good source of glycolytic fast-twitch type II fibers (referred to as fast fibers), whereas soleus muscle is a good source of oxidative slow-twitch type I fibers (referred to as slow fibers). At least three animals from each genotype were used to obtain single muscle fibers for immunostaining. For each immunostaining and for confocal analysis, at least 20 fibers were isolated from each of the three muscle groups. […]

[8] = system: HSAcre: Atg5F/F: GAA−/− mice; assay: Effect of ERT on ubiquitinated (Ub) proteins in fast muscle of HSAcre:Atg5F/F:GAA−/− mice (FK2 immunoblot, immunostaining); format: in vivo, mouse; conditions: ERT-treated vs untreated
Procedure: as §3
Protein concentrations of the supernatants of the total lysates or soluble fractions were measured using Bio-Rad Protein Assay (Bio-Rad Laboratories, Inc., Hercules, Calif.). […]

[9] = system: MLCcre: Atg7F/F: GAA−/− mice; assay: LAMP-1/LC3 immunostaining of single fast (psoas) fibers after ERT, MLCcre:Atg7F/F:GAA−/− mice; format: in vivo, mouse; conditions: ERT-treated
Procedure: as §3

## Cn1cnc(N)c2ncnc1-2 [3-MA, 3-Methyladenine]
TA muscle; 40 l per TA (so in the source), intramuscular
  Highest possible safety dose: 5 mg/mL
TA muscle; mouse, in vivo, ip
  Toxicity / tolerability: no toxicity was observed
autophagy
  Inhibition of autophagy in the injected muscle: did not inhibit autophagy effectively
[1]
  ip LD50 dose: 280 mg/kg

## ERT: recombinant human α-glucosidase (rhGAA; Myozyme®, Genzyme Corporation) given intravenously as enzyme replacement therapy
[2]
  Glycogen level after ERT (in words): reduction of glycogen levels to normal or near normal levels
[2]; listed as recombinant enzyme
  Glycogen level after ERT (in words): dramatic reduction in the glycogen level approaching wild type levels
[2]; MLCcre:Atg7F/F:GAA−/−, Gastroc
  Treated vs. Untreated GAA−/− % Reduction: 88%
  Glycogen level, Treated: 8.6 ± 8.9 μg glucose/hr/mg protein
  Excess Glycogen: 4.2 μg glucose/hr/mg protein
[2]; MLCcre:Atg7F/F:GAA−/−, Heart
  Treated vs. Untreated GAA−/− % Reduction: 100%
  Glycogen level, Treated: 0.2 ± 0.4 μg glucose/hr/mg protein
  Excess Glycogen: 0 μg glucose/hr/mg protein
[2]; MLCcre:Atg7F/F:GAA−/−, Quad
  Treated vs. Untreated GAA−/− % Reduction: 82%
  Glycogen level, Treated: 13.7 ± 10 μg glucose/hr/mg protein
  Excess Glycogen: 9.3 μg glucose/hr/mg protein
[2]; MLCcre:Atg7F/F:GAA−/−, fast (gastrocnemius) muscle, 4 month-old
  Glycogen clearance, PAS-stained sections: near complete glycogen clearance
GAA−/− mice [3]
  Amount of ubiquitinated (Ub) proteins, FK2 immunoblot: No difference in the amount of the Ub-proteins; also recorded: No reduction of ubiquitinated-proteins
[4]; HSAcre:Atg5F/F:GAA−/− mice, fast muscle
  Glycogen level after ERT (in words): reduction of glycogen levels to normal or near normal levels; also recorded: complete removal of the accumulated glycogen
[4]; HSAcre:Atg5F/F:GAA−/−, Gastroc
  Treated vs. Untreated GAA−/− % Reduction: 94%
  Glycogen level, Treated: 4.1 ± 4.9 μg glucose/hr/mg protein
  Excess Glycogen: 0 μg glucose/hr/mg protein
[4]; HSAcre:Atg5F/F:GAA−/−, Heart
  Treated vs. Untreated GAA−/− % Reduction: 100%
  Glycogen level, Treated: 0.0 ± 0.0 μg glucose/hr/mg protein
  Excess Glycogen: 0 μg glucose/hr/mg protein
[4]; HSAcre:Atg5F/F:GAA−/−, Quad
  Treated vs. Untreated GAA−/− % Reduction: 94%
  Glycogen level, Treated: 5.0 ± 4.9 μg glucose/hr/mg protein
  Excess Glycogen: 0.6 μg glucose/hr/mg protein
[4]; HSAcre:Atg5F/F:GAA−/−, fast (gastrocnemius) muscle, 4 month-old
  Glycogen clearance, PAS-stained sections: near complete glycogen clearance
[5]
  Glycogen clearance from type I muscle fibers: effective in clearing gylcogen from type I muscle fibers
  Glycogen clearance from type II muscle fibers: not type II muscle fibers
GAA−/− mice [6]; GAA−/− mice with genetically intact autophagy, skeletal muscle
  Glycogen clearance after ERT (in words): cleared glycogen poorly
GAA−/− mice [6]; Gastroc
  Treated vs. Untreated GAA−/− % Reduction: 27%
  Glycogen level, Treated: 52.5 ± 22.7 μg glucose/hr/mg protein
  Excess Glycogen: 48.1 μg glucose/hr/mg protein
GAA−/− mice [6]; Heart
  Treated vs. Untreated GAA−/− % Reduction: 100%
  Glycogen level, Treated: 0.6 ± 1.2 μg glucose/hr/mg protein
  Excess Glycogen: 0 μg glucose/hr/mg protein
GAA−/− mice [6]; Quad
  Treated vs. Untreated GAA−/− % Reduction: 28%
  Glycogen level, Treated: 54.5 ± 29.6 μg glucose/hr/mg protein
  Excess Glycogen: 50.1 μg glucose/hr/mg protein
Pompe disease
  Glycogen clearance from skeletal muscle: less effective for glycogen clearance from skeletal muscle
  Glycogen clearance in cardiac muscle: effective for glycogen clearance in cardiac muscle
GAA−/− mice [7]
  Autophagic buildup (LC3 immunostaining): this buildup persists in ERT-treated GAA−/− mice
  Lysosomal size (LAMP-1 immunostaining): even larger than those in the untreated fiber
[8]
  Ub-proteins, FK2 immunostaining of single fast (psoas) myofibers: clearly observed in untreated, but not in ERT-treated myofibers
[8]; gastrocnemius, soluble and non-soluble fractions
  Amount of ubiquitinated (Ub) proteins, FK2 immunoblot: A significant drop in the amount of Ub-proteins; also recorded: significant decrease in the amount of ubiquitinated-proteins
[9]
  Expanded lysosomes (LAMP-1 immunostaining): reduce in size and appear normal
